Experimental data from patent publication US8895610B1, “Platinum (IV) compounds targeting zinc finger domains” (priority 2007, dated 2014).
Several values for one entry are separate records, joined by “and”; a condition that tells them apart may be missing. Identical values can stand only once. Entries after “also recorded” stand apart in the source; their conditions may differ.

Assays:
TIMP-1 = experiment: Feline blood serum immunofluorescent bead analysis: TIMP-1; type: in vivo, cat; conditions: cats BR, CF
Procedure: (§1) Test sera samples from select felines were analyzed using the Rules-Based Medicine (Austin, Tex.) human multi-analyte for 90 measures from a single sample of less than 0.5 mL. The assay uses immunofluorescent beads to simultaneously measure antibody recognition to individually identifiable colored beads, each conjugated with a specific antibody, within a single well plate. Blood samples were drawn preceding (pretreatment) and following (post treatment) one-month FX101 treatment (from felines in Example 6), and are compared with two uninfected control felines. Human cross-reactive antibodies are commonly used for felines, and are relative rather than quantitative measures. Reductions in TNF-alpha and MMP-2 are evident in treated cats; TIMP-1 (Tissue Inhibitor of Metalloproteinases) is not associated with the downregulation of MMP-2. Both MMP-2 and MMP-9, as well as MCP-1, are considered important contributors to the penetration of virally-infected cells across the BBB (Webster, 2006). Additional comments follow the table.

[1] = tested on: virions from HIV-1-transfected HeLa cells (pNL4-3); experiment: Electron micrographs of virions from HIV-1 transfected HeLa cells; type: cell-based, human; conditions: 10 and 20 uM; vs untreated control cells
Procedure: Virions collected from HeLa cells 24 hours post-transfected with pNL4-3 HIV-1 were treated with or without FX101 for 2 hours, washed with phosphate-buffered saline, pelleted by ultracentrifugation, fixed with buffer containing 2% glutaraldehyde and 0.1M sodium cacodylate as described (Freed, 1994), and analyzed by electron microscopy. These images reveal comparative distortions of both viral core and corresponding membranes of viral progeny, consistent with published images of immature virion particles having a thick electron-dense outer shell and an electron-lucent center lacking a typical cone-shaped core, produced by nucleocapsid mutant virions (Tanchou, 1998). Mutational deletion of either or both zinc finger domains of the nucleocapsid protein also produces morphologically altered virions, reduces virion release and alters RNA packaging (Houzet, 2008). The failure of nucleocapsid protein proteins to chaperone viral RNA together with the failure to form the nucleocapsid membrane reflects two roles of nucleocapsid proteins involving zinc finger domains. Obstruction of virion assembly may create impotent virions while maintaining antigens for host humoral immune response as virus-like particles. […]

[2] = tested on: HIV-Infected Human Monocyte-Derived Macrophages; experiment: Reverse transcription rates in HIV-infected monocyte-derived macrophages; type: cell-based; conditions: 1 to 10 uM; vs untreated and mock-infected MDM
Procedure: Primary human monocyte-derived macrophages (MDM) were prepared by culturing elutriated monocytes in RPMI-1640 medium, supplemented with 10% fetal bovine serum for 5 to 7 days on ultra-low attachment plates. MDMs were detached from the plates and plated onto tissue culture dishes or microscope culture chambers. MDMs in 6-well plates were infected with WT pNL(AD8) virus stocks and 2×10^6 reverse transcriptase cpm/well. Various incubated concentrations of platinum(IV) compound ranging from 1 to 10 uM were compared with untreated (no drug) and mock-infected MDM reverse transcription rates (counts per minute/microliter). Medium in the MDM cultures was changed every two days and an aliquot was reserved for reverse transcriptase (RT) activity at each time point (Gousset, 2008). […] This activity parallels that observed by Mark-Danieli et al. (2005) by certain zinc finger mutations of the nucleocapsid protein; other investigators have reported decreases or no changes in transcription rates with various mutations (Ramboarina, 2004; Houzet, 2008). […] Increasing the efficiency of reverse transcription initiation is detrimental to viral replication (Thomas and Gorelick, 2008). One role of nucleocapsid proteins is regulation of the transcription cadence in virally-infected cells.

MMP-2 = experiment: Feline blood serum immunofluorescent bead analysis: MMP-2; type: in vivo, cat; conditions: for MMP-2, relative blood serum measure: cats BR, CF
Procedure: as §1

F2 zinc finger peptide = F2 zinc finger peptide (Human immunodeficiency virus type 1 group M subtype B, UniProt P12493)
Procedure: Solutions of F2 zinc finger peptide in phosphate-buffered saline without calcium or magnesium (see Example 1) alone or mixed with zinc and/or platinum compounds were analyzed by MALDI-TOF (matrix-assisted laser desorption/time-of-flight) MS (mass spectrometry). Briefly, the samples comprised 1:1 ratios of F2 peptide with metals in phosphate buffered saline without calcium or magnesium at 2×10 moles/liter concentrations. Additionally, samples containing both Zn(II) and Pt(IV) metals with F2 peptide in a 1:1:1 ratio were analyzed, as were various Pt(IV) and Pt(II) compounds mixed with F2 peptide solutions. Samples were considered to be at equilibrium after 12 hours stored at 4° C. Volumes of 0.5-1.0 microliters for each sample were individually spotted with or without dilution at 1:10, 1:100 or 1:1000 (˜165-193 pmole/microliter) in DHB matrix (Laser Biolabs, France). […]
The main group of peaks include at least two overlapping peaks characteristic of cysteines (see note above) with neutral mass within 2451.82-2457.82 Da, singly charged ions at m/z 2452.82-2458.82 Da. […] While MALDI-TOF MS is not quantitative, relative peak heights are proportional to relative amounts of species.

[3] = Clinical observations, clinical chemistry, CBC and urinalysis in FIV cat studies; type: in vivo; conditions: 9 intravenous doses of 3 mg/kg over 4.5 weeks; two FIV-infected cats
Text: (§2) Currently available antiretrovirals require daily dosing, often in combination therapy. Two 12^+-year old specific-pathogen-free domestic female cats infected >5 years with the Petaluma strain of FIV were used in this study. The animals were housed individually in a climatized animal facility in accordance with standards, had ad libitum access to fresh water and food, and were sedated with Tiletamine/Zolazepam intramuscularly prior to any procedure. The cats weighed from 3-5 kg each. Three weeks before initiation of the treatment and at scheduled times, samples were collected for hematological and virological analyses. The cats received 9 intravenous doses of 3 mg/kg FX101 over 4.5 weeks (2× weekly).

Petaluma strain of FIV = experiment: Plasma viremia by reverse transcription TaqMan PCR in FIV-infected cats; type: in vivo, domestic cat; conditions: for Plasma Viremia: cats BR, CF
Text: as §2
Viral RNA extracted from plasma using the QIAmp viral RNA kit (QIAGEN), was reverse transcribed and amplified by reverse transcription TaqMan PCR. Reverse transcription and amplification conditions, and minimum detection limits of the assay (100-200 copies/mL plasma) are described elsewhere (Pistello, 2005). This measure represents viral presence in circulation, reflecting potential infectivity and productive synthesis of viral particles.
0.1664 g FX101 was dissolved into 30 mL 15% DMSO/PBS and stirred overnight. This solution was sterile-filtered using a 20-mL syringe fitted with a […] Sarstedt filter. Each dose was administered under anesthesia, a 1.5 mL venous injection using a 2.5 mL syringe fitted with a 22G 1¼-in. needle (latex free). Feline BR weighed 3.2 kg at the start of the experiment and CF weighed 2.8 kg. Each received 8.3 mg drug with each dose, so dosages were 2.6 mg/kg for BR and 3.0 mg/kg for CF.
Table 8 illustrates measures of plasma viremia from the two test cats, “BR” and […] relative to the treatment period, receiving intravenous injections of FX101 twice weekly over four weeks. Each blood sample was taken immediately prior to drug injection for the scheduled dosing, August 23-September 30. This provided two pretreatment samples as baseline measures, 3 samples during treatment, and two post-treatment samples; note the addition of an unscheduled sample October 20. […] Following the last dosage, the first post-treatment results were ambiguous, with one cat experiencing a strong rebound and the other remaining below detection. This difference may be attributable to a uterine infection experienced by cat “BR” at this time—a historically frequent occurrence for this cat. It is well known that lipopolysaccharides (LPS) induce lentiviral replication, and this may therefore be related.

[4] = tested on: transfected HeLa and HEK-293 cells; experiment: Viral transcription or infectivity in transfected HeLa and HEK-293 cells; type: cell-based
[5] = post treatment (one-month FX101 treatment)

## [NH2][Pt]([NH2])([Cl])([Cl])([Cl])[N+](=O)[O-] [FX101, nitrotrichlorodiamminoPt(IV)]
TIMP-1; [5]
  TIMP-1, relative blood serum measure: 9.0 ng/mL and 7.3 ng/mL
TIMP-1; pretreatment
  TIMP-1, relative blood serum measure: 6.5 ng/mL and 9.8 ng/mL
[1]
  virion morphology (phenotype of virions produced): immature virions; also recorded: nucleotide-defective and nucleotide-deficient virion particles with morphologically altered phenotypes
[2]
  reverse transcription rate: do not inhibit reverse transcription in this system, but rather increase this rate
MMP-2; [5]
  MMP-2, relative blood serum measure: 2070 ng/mL and 2120 ng/mL
MMP-2; post vs pre one-month treatment
  MMP-2 in serum of treated cats (in words): Reductions
MMP-2; pretreatment
  MMP-2, relative blood serum measure: 3000 ng/mL and 3150 ng/mL
F2 zinc finger peptide; 1:1:1 F2:FX:Zn
  competition with zinc for the F2 zinc finger binding domain: thermodynamic competition of FX over zinc
F2 zinc finger peptide; 1:1 with F2 peptide in PBS, 12 hours at 4° C.
  coordination with F2 peptide (set of peaks at m/z 2452.82-2458.82 Da): unique to the F2 peptide+FX spectral complex
[3]
  local reactions or adverse clinical indicators: No local reactions or adverse clinical indicators
Petaluma strain of FIV; 4 weeks to 9 months past the final dosage, no additional therapies
  plasma viremia after treatment (in words): significantly lower viremia as compared with baseline measures; also recorded: undetectable plasma viremia
Petaluma strain of FIV; Aug. 2, 2007 pretreatment
  Plasma Viremia: 2582 Viral RNA Copies/mL Plasma and 4282 Viral RNA Copies/mL Plasma
Petaluma strain of FIV; Aug. 23, 2007 start of treatment period, blood collected prior to dosing
  Plasma Viremia: 8841 Viral RNA Copies/mL Plasma and 6974 Viral RNA Copies/mL Plasma
Petaluma strain of FIV; Aug. 30, 2007 treatment period, i.v. twice weekly
  Plasma Viremia: 1300 Viral RNA Copies/mL Plasma and 1249 Viral RNA Copies/mL Plasma
Petaluma strain of FIV; Feb. 1, 2006 pretreatment
  Plasma Viremia: 6557 Viral RNA Copies/mL Plasma and 3864 Viral RNA Copies/mL Plasma
Petaluma strain of FIV; Jun. 12, 2008 (+38 wk) post treatment
  Plasma Viremia: <200 Viral RNA Copies/mL Plasma
Petaluma strain of FIV; Mar. 1, 2006 pretreatment
  Plasma Viremia: 3072 Viral RNA Copies/mL Plasma and 2819 Viral RNA Copies/mL Plasma
Petaluma strain of FIV; Mar. 27, 2008 (+27 wk) post treatment
  Plasma Viremia: <200 Viral RNA Copies/mL Plasma
Petaluma strain of FIV; Oct. 20, 2007 (+4 wk) post treatment
  Plasma Viremia: 898 Viral RNA Copies/mL Plasma and 1057 Viral RNA Copies/mL Plasma
Petaluma strain of FIV; Sep. 4, 2007 treatment period, i.v. twice weekly
  Plasma Viremia: <100 Viral RNA Copies/mL Plasma
Petaluma strain of FIV; Sep. 20, 2007 treatment period, i.v. twice weekly
  Plasma Viremia: <100 Viral RNA Copies/mL Plasma
Petaluma strain of FIV; both cats, over two weeks of twice weekly i.v. injections
  plasma viremia during treatment (in words): significant reduction in plasma viremia
[4]
  direct inhibition of viral transcription or infectivity: did not act as a direct inhibitor of viral transcription or infectivity
